Assays:
NZB/W F1 mice = assay: Inhibitory effect on systemic lupus erythematosus and lupus nephritis model animals; assay type: in vivo; conditions: for survival rate / onset rate of proteinuria / anti-double-stranded DNA antibody titer: NZB/W F1 mice, 15, 30 mg per 1 kg twice a day for 15 weeks; for onset rate of proteinuria: UACR>20 = proteinuria-positive; for anti-double-stranded DNA antibody titer / Anti-double-stranded DNA antibody titer (U/mL): plasma, final day of administration; for Number of proteinuria-positive individuals: UACR>20 defined as positive; for Anti-double-stranded DNA antibody titer (U/mL): median of group; for Number of dead/euthanized individuals: until the final day of administration
From the text: For the evaluation of test substances, NZB/W F1 mice (29, 30-week-aged female), which are model mice with systemic lupus erythematosus and lupus nephritis, were used. These mice are a spontaneous animal model, and an increase in autoantibodies such as anti-double-stranded DNA antibody, which is considered to be a cause of systemic lupus erythematosus, and proteinuria, which is a characteristic of lupus nephritis, are observed for the mice, and the mice are known to die from nephritis.
Urine was collected before the start of the test, and individuals with a urinary albumin concentration÷urinary creatinine concentration (UACR) value of 5 or more were excluded. Furthermore, the anti-double-stranded DNA antibody titer in blood and the body weight were measured before the start of the test, and 53 mice were grouped into 5 groups of 10 or 13 mice based on blood anti-double-stranded DNA antibody titer, age, and body weight. Since early death was expected for the vehicle-administered group, the test was conducted with 13 mice as this group.
Example 75 and Example 202 were used as test substances, and a 0.5% methyl cellulose solution which is a vehicle was used as a control. Example 75 and Example 202 were prepared into solutions of 1.5 and 3.0 mg/mL by being dissolved in a 0.5% methyl cellulose solution.
After grouping, the 0.5% methyl cellulose solution or the 1.5 or 3.0 mg/mL solution of Example 75 or Example 202 was administered to each of the mice of the 7 groups. The single dose was set to 10 mL per 1 kg of body weight, and the dose was administered twice a day. Under these conditions, the dose per time is 15, 30 mg per 1 kg of body weight. Administration was started on 29 or 30-week-aged mice, and was performed daily for 15 weeks until the age of 44 or 45 weeks.
Blood was collected from the tail vein of each of all the surviving individuals on the final day of administration. Then, the blood was centrifuged and the plasma was separated and taken. The plasma was diluted 3000-fold, and the anti-double-stranded DNA antibody titer was measured by ELISA method (Levis anti-dsDNA-mouse ELISA Kit, FUJIFILM Wako Shibayagi Corporation). Measurement and analysis were performed according to the protocol of the Kit.
All the surviving individuals on the final day of administration were bred in a mouse metabolism cage (CLEA Japan, Inc.) for 16 hours, and urine was collected from each individual. The solids were removed by centrifuging the urine and collecting the supernatant. An automatic analyzer (JCA-BM6050 BioMajesty, JEOL Ltd.) was used to measure the albumin concentration and creatinine concentration in urine after centrifugation. A urinary albumin/creatinine ratio (UACR) was calculated by dividing the albumin concentration by the creatinine concentration, and individuals with UACR>20 were defined as proteinuria-positive individuals. In addition, for almost all the individuals that died before the final day of administration, UACR>20 was confirmed in urinalysis immediately before death, and thus these individuals were treated as proteinuria-positive individuals.

[1] = tested on: graft-versus-host disease model CB6F1 mice; assay: Lymphocyte proliferation inhibitory effect using graft-versus-host disease model animals (splenomegaly formation); assay type: in vivo; conditions: Mus musculus, 240 h, oral, twice a day for 10 days, GVHD model CB6F1 mice, read-out: Inhibition rate (%) (splenomegaly formation); for inhibition in vivo at 20 mg/kg: single dose 20 mg/kg
Method: BALB/c mice (8-week-aged female) were euthanized, and then the spleen was removed from each mouse. Then, hemolysis treatment was performed to isolate spleen cells. The obtained spleen cells were intravenously transplanted into CB6F1 mice (8-week-aged female), which are C57BL/6 and BALB/c F1 mice, to prepare a model, and splenomegaly was induced. For transplantation, spleen cells for 1.2 BALB/c mouse were used for one CB6F1 mouse.
Each test substance shown in Table 64 was weighed and dissolved in a 0.5% methyl cellulose solution, thereby preparing test substance solutions of 0.3 to 10 mg/mL.
A vehicle (0.5% methyl cellulose solution) or test substance was orally administered to each CB6F1 mouse after transplantation at a dose of 3 to 50 mg/kg in terms of body weight twice a day for 10 days from the day after transplantation. The mouse was euthanized on the 11th day from the start of administration, then the spleen was removed therefrom, and the wet weight of the spleen was measured. For each of CB6F1 mice that had not undergone transplantation as a control group, the wet weight of the spleen was also measured.
The splenomegaly formation inhibition rate when the spleen weights of the mice to which the vehicle was administered after transplantation and the mice on which transplantation had not been performed were 0% and 100%, respectively, was calculated.

[2] = single dose 15 mg/kg twice a day for 15 weeks
[3] = single dose 30 mg/kg twice a day for 15 weeks

SMILES	survival rate (NZB/W F1 mice)	onset rate of proteinuria (NZB/W F1 mice)	anti-double-stranded DNA antibody titer (NZB/W F1 mice)	Number of proteinuria-positive individuals (NZB/W F1 mice; [2])	Anti-double-stranded DNA antibody titer (U/mL) (NZB/W F1 mice; [2])	Number of dead/euthanized individuals (NZB/W F1 mice; [2])	Number of proteinuria-positive individuals (NZB/W F1 mice; [3])	Anti-double-stranded DNA antibody titer (U/mL) (NZB/W F1 mice; [3])	Number of dead/euthanized individuals (NZB/W F1 mice; [3])	inhibition in vivo at 6 mg/kg ([1]; single dose 6 mg/kg) [%]	inhibition in vivo at 20 mg/kg [1] [%]	inhibition in vivo at 10 mg/kg ([1]; single dose 10 mg/kg) [%]
C[C@H](Nc1cc(-c2n[nH]c(=O)o2)cc(F)c1C(F)(F)F)C1CCNCC1.Cl [Example 75, 5-[3-fluoro-5-{[(1S)-1-(piperidin-4-yl)ethyl]amino}-4-(trifluoromethyl)phenyl]-1,3,4-oxadiazol-2(3H)-one hydrochloride]	improving the survival rate	decreasing the onset rate of proteinuria	suppressing an increase in anti-double-stranded DNA antibody titer	2/10	423	0/10	0/10	306	0/10	21.7	27.1	
C[C@H](Nc1cc(-c2n[nH]c(=O)o2)cc(F)c1OC(F)(F)F)C1CCNCC1.Cl [Example 202, 5-[3-fluoro-5-{[(1S)-1-(piperidin-4-yl)ethyl]amino}-4-(trifluoromethoxy)phenyl]-1,3,4-oxadiazol-2(3H)-one hydrochloride]	improving the survival rate	decreasing the onset rate of proteinuria	suppressing an increase in anti-double-stranded DNA antibody titer	1/10	568	1/10	1/10	112	1/10		33.5	28.4
